Test results taken from US20250281627A1, “CANCER-TARGETING PEPTIDE, PRODRUG NANOPARTICLES COMPRISING SAME, AND PHARMACEUTICAL COMPOSITION COMPRISING SAME FOR CANCER PREVENTION OR TREATMENT” (priority 2022, published 2025).
Counter-ions that a name gives are not always drawn. Like-named read-outs stand apart in the source and are kept apart here. Residues, ends and D or L forms follow the SMILES beside them. No end group written: not given here. *: point of attachment. Doxorubicin(3'-N) = COc1cccc2c1C(=O)c1c(O)c3c(c(O)c1C2=O)C[C@@](O)(C(=O)CO)C[C@@H]3O[C@H]1C[C@H](N*)[C@H](O)[C@H](C)O1; acyl = not defined here; DOX = doxorubicin

Columns and labels:
[1] = tested on: HT29 tumor-bearing BALB/c nu/nu mice; experiment: Distribution of prodrug nanoparticles in vivo (fluorescence imaging, ex vivo organs, tissue sections)
Procedure: After 3, 6 and 9 hours of the drug injection, the test groups were imaged using an IVIS Lumina Series III system. After euthanasia, liver, lung, spleen, kidney, heart and tumor tissues were recovered.
The obtained tissues were sliced into 10 μm-thick sections, which were mounted individually on a slide glass, and washed tice with DPBS. Then, after staining with […] for 20 minutes, fluorescence signals were observed by CLSM.

H9C2 cells [2] = experiment: Cytotoxicity CCK-8; assay type: cell-based, rat; settings: for IC50: 48 hours, CCK-8, normal cells (cardiomyocytes)
Procedure: (§1) In addition, cytotoxicity was investigated using CCK-8 (cell counting kit-8). Specifically, 1×10^4 HT29 cells and 0.5×10^4 H9C2 cells were seeded onto a 96-well plate, respectively, and stabilized by culturing for 24 hours. A single administration group, drug administration groups and a control group were obtained by administering the anticancer agent (DOX) alone (0.01 to 100 μM) or together with the prodrug nanoparticles of Example 4 and Comparative Example 3 (0.01 to 100 μM), respectively, to each well and incubating at 37° C. for 48 hours. After the incubation was completed, a culture medium containing a 10% CCK-8 solution was added. After conducting reaction for 20 minutes, analysis was made with a microplate reader at a wavelength of 450 nm. After plotting cell survivability depending on concentration, IC50 (half-maximal inhibitory concentration) values were obtained for the single administration group, drug administration groups and control group using the GraphPad Prism 8 software (GraphPad Software, San Diego, CA, USA).

HT29 cells [3] = experiment: cells; assay type: cell-based, human; settings: 48 hours; for IC50: CCK-8
Procedure: as §1

tumor-free BALB/c mice [4] = settings: multiple administration; for body weight change: once in 3 days, 8 times
Procedure: 8 days later, the mice were euthanized and liver, lung, spleen, kidney, heart and cancer tissues were recovered. Each of the recovered liver, lung, spleen, kidney, heart and cancer tissues was fixed with 4% paraformaldehyde for 15 minutes, embedded in wax, and then sliced to 10 μm-thick sections. Then, after staining with H&E, the morphological damage to the tissues was analyzed by imaging with an optical microscope.
(§3) For evaluation of hematotoxicity, 1 mL of blood was taken from each test group, and blood plasma was separated by centrifuging at 4,500 rpm for 20 minutes. Blood analysis was performed according to the instructions of KNOTUS Co., Ltd. (Incheon, Korea).

[5] = tested on: HT29 tumor-bearing BALB/c nu/nu mice; experiment: Anticancer effect in animal model of cancer
Procedure: (§4) 1×10^7 HT29 cells were subcutaneously injected into the left flank of the 5-week-old male BALB/c nu/nu mice. An animal model of cancer was prepared by breeding the mice until the tumor size grew to about 60 to 80 mm^3.
(§5) Test groups 6 to 8 were prepared by injecting an anticancer agent (DOX) (3 mg/kg) or the prodrug nanoparticles of Example 4 (4 or 10 mg/kg based on DOX concentration) to the animal model of cancer via the tail vein once in 3 days at the same time (n=5 for each test group). The overall treatment period was 26 days, and the number of drug administration was 8 times.
(§6) After the treatment period, tumor volume, body weight and survival rate of each test group were measured every 2 days. After euthanasia, liver, lung, spleen, kidney, heart and cancer tissues were recovered and subjected to histological and TUNEL assay.
(§7) The tumor volume was calculated from the longest diameter×(the shortest diameter)^2×0.53 of the cancer tissue, and a tumor volume larger than 1,000 mm^3 was judged as death.
(§8) For histological analysis, each of the recovered liver, lung, spleen, kidney, heart and cancer tissues was fixed with 4% paraformaldehyde for 15 minutes, embedded in wax, and then sliced to 10 μm-thick sections. Then, after staining with H&E, the morphological damage to the tissues was analyzed by imaging with an optical microscope.
(§9) The cancer tissue was stained by TUNEL (terminal deoxynucleotidyl transferase dUTP nick end labeling) analysis for visualization of the apoptotic region.

tumor-free BALB/c mice [6] = experiment: Toxicity in vivo, single administration; settings: single i.v. administration
Procedure: Test groups 9 to 12 were prepared by injecting an anticancer agent (DOX) (3 or 4 mg/kg) or the prodrug nanoparticles of Example 4 (4 or 10 mg/kg based on DOX concentration) once to tumor-free BALB/c mice (5-week-old) via the tail vein (n=5 for each test group).
Tumor volume, body weight and survival rate were measured every day after injection of the drug to the test groups. 8 days later, the mice were euthanized and liver, lung, spleen, kidney, heart and cancer tissues were recovered. Each of the recovered liver, lung, spleen, kidney, heart and cancer tissues was fixed with 4% paraformaldehyde for 15 minutes, embedded in wax, and then sliced to 10 μm-thick sections. Then, after staining with H&E, the morphological damage to the tissues was analyzed by imaging with an optical microscope.
as §3

[7] = tested on: HT29 tumor-bearing BALB/c nu/nu mice; settings: mouse, in vivo, iv
Procedure: as §4, §5, §6, §7, §8, §9

[8] = tested on: Cathepsin B-inhibited cells (HT29-Inh); experiment: Cell-specific activity, DOX fluorescence distribution (CLSM); assay type: cell-based, human; settings: HT29-Inh cells (Z-Phe-Ala-FMK 20 μM pretreated), 5 μM, 48 hours
Procedure: (§2) Then, experiment was performed as follows to analyze specific activity for cells. First, 2×10^5 HT29 cells and 2×10^5 H9C2 cells were seeded onto a glass-bottomed confocal dish, respectively. Cathepsin B-inhibited cells (HT29-Inh) were prepared by pretreating HT29 cells with Z-Phe-Ala-FMK (20 μM) for 24 hours. After stabilizing the cells by culturing for 24 hours, and administering the anticancer agent (DOX) alone (5 μM) or together with the prodrug nanoparticles of Example 4 and Comparative Example 3 (5 μM), respectively, a single administration group, drug administration groups and a control group were obtained by incubating at 37° C. for 48 hours. […] Each group was imaged by CLSM to obtain a fluorescence image, and fluorescence intensity was quantified from the fluorescence image to investigate the distribution of the prodrug nanoparticles using the Image-Pro software (Media Cybernetics, Rockville, MD, USA).

H9C2 cells [9] = experiment: as above; assay type: cell-based, rat; settings: 5 μM, 48 hours
Procedure: as §2

Cytotoxicity CCK-8 = assay type: cell-based, rat; settings: rat, H9C2 cells; at 1 to 100 μM, 48 hours; read-out: survival rate of normal cells
Procedure: as §1

[10] = tested on: T1, FRRL-DOX conjugate / prodrug nanoparticles of Example 4 (N-acylated Phe-Arg-Arg-Leu conjugated with doxorubicin)
T1 sequence: FRRG

HT29 colon cancer cells = experiment: Cellular uptake and intranuclear localization (CLSM); assay type: cell-based, human; settings: 5 μM
Procedure: The cellular uptake and intranuclear localization of the prodrug nanoparticles (5 μM) were analyzed using HT29 colon cancer cells. In order to investigate the intracellular behavior and intracellular interaction of the prodrug nanoparticles, 2×10^5 HT29 cells were seeded onto a glass-bottomed confocal dish. After stabilizing the cells by culturing for 24 hours, they were treated with the prodrug nanoparticles of Examples 4 to 6 and Comparative Example 3 (5 μM), and drug administration groups 1, 2 and 3 (FRRL-DOX, FRRLG-DOX, FLRRG-DOX) and a control group (FRRG-DOX) were obtained by incubating at 37° C. for 0, 24 and 48 hours. […] Each group was imaged by CLSM to obtain a fluorescence image, and fluorescence intensity was quantified from the fluorescence image to investigate the distribution of the prodrug nanoparticles using the Image-Pro software (Media Cybernetics, Rockville, MD, USA).

HT29 cells [11] = experiment: Degradation after cellular uptake (MALDI-TOF of cell filtrate); assay type: cell-based, human; settings: 100 μM, 48 hours
Procedure: In order to further investigate whether the prodrug nanoparticles are degraded after cellular uptake, 1×10^6 HT29 cells were seeded onto a 100-mm cell culture dish and stabilized by culturing for 24 hours. After administering the prodrug nanoparticles of Examples 4 to 6 and Comparative Example 3 (100 μM) to the cells, drug administration groups 1, 2 and 3 (FRRL-DOX, FRRLG-DOX, FLRRG-DOX) and a control group (FRRG-DOX) were obtained by incubating at 37° C. for 48 hours. Each group was washed with PBS and dispersed in distilled water (H2O). The dispersion was filtered through a 0.45-μm syringe filter, and the recovered filtrate was subjected to mass analysis by MALDI-TOF.

[12] = target: lysosome enzymes other than cathepsin B; experiment: cell-based or functional assay
[13] = i.v. once in 3 days, test group 6
[14] = test group 4, 4 mg/kg based on DOX

COc1cccc2c1C(=O)c1c(O)c3c(c(O)c1C2=O)C[C@@](O)(C(=O)CO)C[C@@H]3O[C@H]1C[C@H](NC(=O)CNC(=O)[C@H](CCCNC(=N)N)NC(=O)[C@H](CCCNC(=N)N)NC(=O)[C@H](Cc2ccccc2)NC(C)=O)[C@H](O)[C@H](C)O1 [Comparative Example 3] (Ac-FRRG-{Doxorubicin(3'-N)})
accumulation in liver tissues relative to cancer tissues ([1]; test group 2, 4 mg/kg based on DOX, i.v.): 2.4 times
accumulation in liver tissues relative to cancer tissues ([1]; test group 3, 10 mg/kg based on DOX, i.v.): 6.7 times
IC50 (H9C2 cells [2]): 158 µM
IC50 (HT29 cells [3]): 14.1 µM

COc1cccc2c1C(=O)c1c(O)c3c(c(O)c1C2=O)C[C@@](O)(C(=O)CO)C[C@@H]3O[C@H]1C[C@H](N)[C@H](O)[C@H](C)O1 [DOX, Doxorubicin hydrochloride]
hematotoxicity (tumor-free BALB/c mice [4]): significant hematotoxicity
histochemical analysis of organ tissues (H&E) (tumor-free BALB/c mice [4]): normal tissues were destroyed and damaged
all the mice died within (tumor-free BALB/c mice [4]; DOX 3 and 4 mg/kg): ≤ 20 days
levels of hemoglobin and hematocrit (tumor-free BALB/c mice [4]; DOX 3 and 4 mg/kg): outside normal ranges
body weight change (tumor-free BALB/c mice [4]): rapid body weight decrease
histopathological analysis of cancer tissue ([5]; H&E, after treatment): relatively weak damage of the cancer tissue
TUNEL assay of cancer tissue (green fluorescence) ([5]; after treatment): weak green fluorescence
all the mice died within [5, 13]: ≤ 20 days
death observed within [5, 13]: ≤ 5 days
red fluorescence (DOX) in cancer tissue sections ([1]; 4 mg/kg i.v., confocal, DAPI): hardly observed
fluorescence intensity in kidney tissues relative to cancer tissues ([1]; 4 mg/kg i.v., test group 1): 8.8 times
histochemical analysis of organ tissues (H&E) (tumor-free BALB/c mice [6]): damaged severely
body weight decrease (tumor-free BALB/c mice [6]; 3 and 4 mg/kg): ≥ 9%
systemic toxicity [7]: severe systemic toxicity
location of fluorescence of anticancer agent (DOX) [8]: penetrated into the cell nucleus
location of fluorescence of anticancer agent (DOX) (H9C2 cells [9]): penetrated into the cell nucleus
survival rate in tumor cells versus normal cells (H9C2 cells [2]; HT29 versus H9C2): no difference in the survival rate
IC50 (H9C2 cells [2]; Rattus norvegicus, H9c2): 0.12 µM
IC50 (HT29 cells [3]; Homo sapiens, HT-29): 0.12 µM

COc1cccc2c1C(=O)c1c(O)c3c(c(O)c1C2=O)C[C@@](O)(C(=O)CO)C[C@@H]3O[C@H]1C[C@H](NC(=O)[C@H](CC(C)C)NC(=O)[C@H](CCCNC(=N)N)NC(=O)[C@H](CCCNC(=N)N)NC(=O)[C@H](Cc2ccccc2)NC(C)=O)[C@H](O)[C@H](C)O1 [Example 4] (Ac-FRRL-{Doxorubicin(3'-N)})
hematotoxicity (tumor-free BALB/c mice [4]): no hematotoxicity
histochemical analysis of organ tissues (H&E) (tumor-free BALB/c mice [4]): no significant damage of organ tissues
all the mice survived healthily for (tumor-free BALB/c mice [4]; 4 and 10 mg/kg based on DOX): more than 26 days
body weight change (tumor-free BALB/c mice [4]): no body weight change
systemic toxicity ([5]; repeated i.v. administration in tumor-bearing mice): no severe systemic toxicity
accumulation efficiency for cancer tissues (in vivo fluorescence imaging) ([1]; 4 mg/kg based on DOX, i.v., 9 hours, vs DOX alone or Comparative Example 3): significantly high accumulation efficiency for cancer tissues
cancer-targeting ability (fluorescence of isolated cancer tissue), times higher than DOX ([1]; 4 mg/kg based on DOX, i.v., test group 4 vs 1): 2.3 times
cancer-targeting ability (fluorescence of isolated cancer tissue), times higher than Comparative Example 3 ([1]; 4 mg/kg based on DOX, i.v., test group 4 vs 2): 1.4 times
accumulation in cancer tissues relative to kidney tissues ([1]; 4 and 10 mg/kg based on DOX, i.v., test groups 4 and 5): ≥ 2 times
accumulation efficiency for liver tissues, times lower than Comparative Example 3 ([1]; first of two printed values (4 and 10 mg/kg groups)): 2.4 times
accumulation efficiency for liver tissues, times lower than Comparative Example 3 ([1]; second of two printed values (4 and 10 mg/kg groups)): 4.8 times
red fluorescence in cancer tissue sections, times stronger than test group 1 [1, 14]: 6.7 times
red fluorescence in cancer tissue sections, times stronger than test group 3 [1, 14]: 2.6 times
histochemical analysis of organ tissues (H&E) (tumor-free BALB/c mice [6]): no damaged organ tissue
body weight change (tumor-free BALB/c mice [6]; 4 and 10 mg/kg based on DOX): no significant change in body weight
viability at 48 h (Cytotoxicity CCK-8): 80%
IC50 (H9C2 cells [2]): 182 µM
IC50 (HT29 cells [3]): 6.13 µM
survival rate of cancer cells (HT29 cells [3]; at 1 to 100 μM): 0%

Cathepsin B (purchased from R&D Systems), enzyme in solution
RP-HPLC peaks of conjugate and cleavage product over reaction time [10]: a peak of L-DOX was observed at 14.7 minutes 3 hours after the reaction. The peak of the FRRL-DOX conjugate began to decrease and was not detected at all 24 hours after the reaction

Example 6: conjugate of N-terminally acylated peptide Phe-Leu-Arg-Arg-Gly (SEQ ID NO: 3) and doxorubicin; self-assembled prodrug nanoparticles (acyl-FLRRG-{DOX}; reading uncertain; also: printed as FLRRG-DOX)
anticancer agent (DOX) delivered into the nucleus (ratio of accumulation in the nucleus) (HT29 colon cancer cells; 48 h, fluorescence intensity nucleus vs cytoplasm): 21%
location of red fluorescence (DOX) in the cells (HT29 colon cancer cells; confocal images): mainly in the region other than the nucleus
degradation of prodrug nanoparticles in the cancer cells (MALDI-TOF) (HT29 cells [11]): slightly low sensitivity to cathepsin B

B1: FLRRG-DOX conjugate / prodrug nanoparticles of Example 6 (N-acylated Phe-Leu-Arg-Arg-Gly conjugated with doxorubicin) (peptide)
peptide: FLRRG-{DOX}
modifications: not fully specified (N-terminus); printed as FLRRG-DOX
degradation ratio (%) [12]: < 5%

B2: FRRLG-DOX conjugate / prodrug nanoparticles of Example 5 (N-acylated Phe-Arg-Arg-Leu-Gly conjugated with doxorubicin) (peptide)
peptide: FRRLG-{DOX}
modifications: not fully specified (N-terminus); printed as FRRLG-DOX
degradation ratio (%) [12]: < 5%
